Test results from US9096593B2, “Compounds and methods for kinase modulation, and indications therefor” (Plexxikon Inc., priority 2009, dated 2015).
Like-named read-outs stand apart in the source and are kept apart here.

Assays:
[1] = molecular target: CYP2C19 (Homo sapiens (Human), UniProt P33261); assay: CYP enzyme inhibition, fluorescent substrate
In short: (§1)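 […]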

[2] = molecular target: CYP2D6 (Homo sapiens (Human), UniProt P10635); assay: CYP enzyme inhibition, fluorescent substrate; details: read-out: Cyp IC50 (μM) 2D6
[3] = molecular target: CYP2C9 (Homo sapiens (Human), UniProt P11712); assay: CYP enzyme inhibition, fluorescent substrate
In short: as §1

[4] = molecular target: CYP1A2 (Homo sapiens (Human), UniProt P05177); assay: CYP enzyme inhibition, fluorescent substrate
[5] = molecular target: CYP3A4(BFC) (Homo sapiens (Human), UniProt P08684); assay: CYP enzyme inhibition, fluorescent substrate
In short: as §1

[6] = molecular target: c-Kit kinase (Homo sapiens (Human), UniProt P10721); assay: c-Kit kinase biochemical activity assay (AlphaScreen, biotin-(E4Y)10 phosphorylation)
[7] = molecular target: BCR-FMS/BaF3 cells (Homo sapiens, UniProt P07333); assay: BCR-FMS/BaF3 cell proliferation assay (ATPlite); format: cell-based
In short: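 Proliferation read by ATPlite luminescence after 3 days' exposure (37 °C, 5% CO2) to compound in 1:3 dilutions, eight points, maximum 10 μM final, DMSO control.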

[8] = Kit IC50/Fms IC50, BCR-KIT/BaF3 vs BCR-FMS/BaF3 cells
[9] = read-out: BCR/BaF3 (IC50 μM) Fms; BCR-FMS/BaF3 cells
[10] = read-out: Cyp IC50 (μM) 3A4(BFC), BFC substrate
[11] = read-out: Cell based (IC50 μM) BCR/BaF3 (Fms); BCR-FMS/BaF3 cells, 3 days

Sequence of CYP3A4(BFC) (P08684 whole entry): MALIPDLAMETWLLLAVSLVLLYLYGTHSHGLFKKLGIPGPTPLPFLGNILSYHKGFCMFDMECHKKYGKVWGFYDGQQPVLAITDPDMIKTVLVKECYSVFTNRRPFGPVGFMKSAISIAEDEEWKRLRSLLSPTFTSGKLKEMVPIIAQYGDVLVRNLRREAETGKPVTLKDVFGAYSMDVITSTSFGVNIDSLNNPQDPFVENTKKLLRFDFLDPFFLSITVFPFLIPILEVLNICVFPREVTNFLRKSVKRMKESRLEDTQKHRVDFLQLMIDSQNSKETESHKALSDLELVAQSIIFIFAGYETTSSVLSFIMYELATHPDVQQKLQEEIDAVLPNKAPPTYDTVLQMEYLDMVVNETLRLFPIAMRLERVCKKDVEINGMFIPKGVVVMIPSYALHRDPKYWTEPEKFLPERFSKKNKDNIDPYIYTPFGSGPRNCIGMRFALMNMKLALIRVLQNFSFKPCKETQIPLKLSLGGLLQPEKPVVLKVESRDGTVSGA
Sequence of CYP2C9 (P11712 whole entry): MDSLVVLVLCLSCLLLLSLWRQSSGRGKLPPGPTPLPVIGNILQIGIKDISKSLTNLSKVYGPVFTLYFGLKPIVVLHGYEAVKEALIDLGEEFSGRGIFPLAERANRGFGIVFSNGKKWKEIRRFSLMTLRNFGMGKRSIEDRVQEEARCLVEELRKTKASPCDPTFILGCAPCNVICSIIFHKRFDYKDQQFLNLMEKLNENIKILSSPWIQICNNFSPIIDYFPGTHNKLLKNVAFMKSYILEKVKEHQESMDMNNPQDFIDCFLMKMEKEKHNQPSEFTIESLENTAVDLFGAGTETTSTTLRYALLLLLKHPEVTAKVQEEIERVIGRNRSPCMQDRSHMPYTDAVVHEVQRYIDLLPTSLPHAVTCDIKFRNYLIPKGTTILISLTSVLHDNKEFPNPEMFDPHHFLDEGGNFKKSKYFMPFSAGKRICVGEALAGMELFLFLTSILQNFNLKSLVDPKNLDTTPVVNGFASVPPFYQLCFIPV
Sequence of c-Kit kinase (P10721 26-976): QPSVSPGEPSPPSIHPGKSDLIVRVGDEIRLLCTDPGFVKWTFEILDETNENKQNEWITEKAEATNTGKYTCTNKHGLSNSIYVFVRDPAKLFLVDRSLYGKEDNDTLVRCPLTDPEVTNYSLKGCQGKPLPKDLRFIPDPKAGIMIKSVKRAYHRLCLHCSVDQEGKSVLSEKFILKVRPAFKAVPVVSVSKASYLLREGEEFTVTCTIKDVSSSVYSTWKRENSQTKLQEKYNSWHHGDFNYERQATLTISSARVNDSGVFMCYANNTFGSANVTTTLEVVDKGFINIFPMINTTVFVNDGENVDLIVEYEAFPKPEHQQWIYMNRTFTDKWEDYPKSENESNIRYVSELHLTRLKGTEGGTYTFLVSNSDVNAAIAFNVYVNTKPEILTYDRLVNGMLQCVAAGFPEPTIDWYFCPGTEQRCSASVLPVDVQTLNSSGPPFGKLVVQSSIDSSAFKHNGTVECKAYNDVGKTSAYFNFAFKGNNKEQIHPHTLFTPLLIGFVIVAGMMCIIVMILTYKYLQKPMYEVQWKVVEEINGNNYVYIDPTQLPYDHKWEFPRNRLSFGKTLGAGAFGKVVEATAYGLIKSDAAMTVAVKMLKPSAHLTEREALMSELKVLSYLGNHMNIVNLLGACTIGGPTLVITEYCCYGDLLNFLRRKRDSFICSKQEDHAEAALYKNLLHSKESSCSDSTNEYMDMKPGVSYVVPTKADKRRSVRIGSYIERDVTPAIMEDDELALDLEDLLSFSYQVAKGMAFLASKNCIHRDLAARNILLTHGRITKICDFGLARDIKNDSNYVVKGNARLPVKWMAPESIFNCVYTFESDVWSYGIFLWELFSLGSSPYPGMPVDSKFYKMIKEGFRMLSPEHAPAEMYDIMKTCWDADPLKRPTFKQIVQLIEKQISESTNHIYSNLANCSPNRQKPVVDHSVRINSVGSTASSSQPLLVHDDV
Sequence of CYP2C19 (P33261 whole entry): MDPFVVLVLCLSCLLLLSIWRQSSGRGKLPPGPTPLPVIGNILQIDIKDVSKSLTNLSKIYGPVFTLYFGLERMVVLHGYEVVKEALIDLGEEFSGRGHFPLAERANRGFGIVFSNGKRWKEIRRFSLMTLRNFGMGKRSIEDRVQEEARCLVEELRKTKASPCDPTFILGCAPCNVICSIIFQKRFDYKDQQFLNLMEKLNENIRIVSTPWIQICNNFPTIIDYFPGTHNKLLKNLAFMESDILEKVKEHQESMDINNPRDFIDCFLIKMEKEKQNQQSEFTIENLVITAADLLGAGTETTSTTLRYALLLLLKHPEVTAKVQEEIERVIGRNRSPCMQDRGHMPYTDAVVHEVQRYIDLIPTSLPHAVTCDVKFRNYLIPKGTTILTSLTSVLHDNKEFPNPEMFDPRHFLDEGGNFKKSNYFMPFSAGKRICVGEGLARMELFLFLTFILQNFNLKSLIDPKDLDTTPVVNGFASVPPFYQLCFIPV
Sequence of CYP1A2 (P05177 whole entry): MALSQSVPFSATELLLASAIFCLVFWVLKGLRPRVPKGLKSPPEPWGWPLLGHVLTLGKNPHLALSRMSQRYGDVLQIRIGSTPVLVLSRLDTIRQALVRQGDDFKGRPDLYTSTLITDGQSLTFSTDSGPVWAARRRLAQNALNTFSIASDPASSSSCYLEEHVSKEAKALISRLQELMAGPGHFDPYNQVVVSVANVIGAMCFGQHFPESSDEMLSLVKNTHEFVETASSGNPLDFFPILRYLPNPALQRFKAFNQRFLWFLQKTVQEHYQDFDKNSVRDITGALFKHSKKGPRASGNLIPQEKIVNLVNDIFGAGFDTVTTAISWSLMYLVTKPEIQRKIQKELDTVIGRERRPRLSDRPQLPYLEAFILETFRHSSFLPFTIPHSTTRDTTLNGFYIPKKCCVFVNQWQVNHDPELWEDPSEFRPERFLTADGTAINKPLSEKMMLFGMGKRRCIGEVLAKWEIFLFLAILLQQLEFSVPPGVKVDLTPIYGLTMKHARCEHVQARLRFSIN
Sequence of BCR-FMS/BaF3 cells (P07333 20-972 limits assumed, change not shown): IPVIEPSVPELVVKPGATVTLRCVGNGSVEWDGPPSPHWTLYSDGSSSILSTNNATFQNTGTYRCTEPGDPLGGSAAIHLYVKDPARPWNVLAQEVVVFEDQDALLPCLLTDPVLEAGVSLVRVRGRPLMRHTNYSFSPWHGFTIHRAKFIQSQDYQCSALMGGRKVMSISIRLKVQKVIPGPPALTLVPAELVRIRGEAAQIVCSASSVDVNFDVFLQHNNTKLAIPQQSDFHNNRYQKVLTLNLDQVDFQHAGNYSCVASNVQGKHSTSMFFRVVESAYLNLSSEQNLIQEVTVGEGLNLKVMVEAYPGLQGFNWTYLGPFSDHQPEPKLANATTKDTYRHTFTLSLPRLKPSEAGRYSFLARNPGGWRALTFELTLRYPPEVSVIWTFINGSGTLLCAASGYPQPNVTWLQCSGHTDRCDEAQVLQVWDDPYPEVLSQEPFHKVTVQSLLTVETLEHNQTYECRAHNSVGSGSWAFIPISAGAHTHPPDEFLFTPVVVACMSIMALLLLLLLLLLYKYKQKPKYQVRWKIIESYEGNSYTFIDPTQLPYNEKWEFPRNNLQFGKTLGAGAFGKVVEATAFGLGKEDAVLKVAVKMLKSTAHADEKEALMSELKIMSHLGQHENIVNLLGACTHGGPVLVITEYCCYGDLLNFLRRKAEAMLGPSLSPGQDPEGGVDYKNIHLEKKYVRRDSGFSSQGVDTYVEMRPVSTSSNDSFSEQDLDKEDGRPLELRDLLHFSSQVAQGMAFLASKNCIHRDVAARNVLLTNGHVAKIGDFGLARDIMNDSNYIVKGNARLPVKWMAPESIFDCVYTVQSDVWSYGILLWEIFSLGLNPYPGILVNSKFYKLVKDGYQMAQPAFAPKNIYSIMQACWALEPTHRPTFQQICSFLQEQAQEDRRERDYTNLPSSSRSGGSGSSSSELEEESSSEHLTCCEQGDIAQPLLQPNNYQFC
Sequence of CYP2D6 (P10635 whole entry): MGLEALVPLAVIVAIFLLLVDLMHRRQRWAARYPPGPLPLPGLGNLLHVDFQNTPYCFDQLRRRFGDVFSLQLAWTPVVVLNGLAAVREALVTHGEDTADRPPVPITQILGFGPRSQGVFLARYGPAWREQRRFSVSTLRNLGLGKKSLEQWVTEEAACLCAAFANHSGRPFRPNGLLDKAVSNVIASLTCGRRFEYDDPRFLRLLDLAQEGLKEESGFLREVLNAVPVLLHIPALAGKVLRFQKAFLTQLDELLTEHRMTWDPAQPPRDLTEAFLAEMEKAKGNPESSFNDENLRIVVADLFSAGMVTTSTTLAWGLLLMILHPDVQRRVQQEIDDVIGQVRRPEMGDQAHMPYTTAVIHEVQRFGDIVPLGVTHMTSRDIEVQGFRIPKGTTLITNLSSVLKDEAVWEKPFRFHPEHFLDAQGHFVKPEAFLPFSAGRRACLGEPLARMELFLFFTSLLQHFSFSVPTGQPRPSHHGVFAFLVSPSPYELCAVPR

| IC50 ([7]; BCR-FMS/BaF3 cells; read-out: BCR/BaF3 (IC50 μM) Fms) [µM] | SMILES | IC50 ([1]; read-out: Cyp IC50 (μM) 2C19) [µM] | IC50 [2] [µM] | IC50 ([3]; read-out: Cyp IC50 (μM) 2C9) [µM] | IC50 ([4]; human, 15 min) [µM] | IC50 [5] [µM] | IC50 [6] [µM] | BCR/BaF3 selectivity (Kit IC50/Fms IC50) [7, 8] | IC50 [7, 9] [µM] | IC50 [3] [µM] | IC50 [5, 10] [µM] | IC50 [1] [µM] | IC50 ([3]; human, CYP2C9 enzyme (BD Biosciences), 45 min) [µM] | IC50 [7, 11] [µM] | IC50 ([4]; read-out: Cyp IC50 (μM) 1A2) [µM] |
| --- | --- | --- | --- | --- | --- | --- | --- | --- | --- | --- | --- | --- | --- | --- | --- |
|  | Cc1cnc2[nH]cc(Cc3ccc(NCc4cnccc4C(F)(F)F)nc3F)c2c1 [Compound P-2062, [6-Fluoro-5-(5-methyl-1H-pyrrolo[2,3-b]pyridin-3-ylmethyl)-pyridin-2-yl]-(4-trifluoromethyl-pyridin-3-ylmethyl)-amine] | < 5 | > 10 | < 5 | > 10 | 5 to 10 | > 0.1 | >20 | < 0.1 |  |  |  |  |  |  |
|  | Cc1cnc2[nH]cc(Cc3cnc(NCc4ccc(C(F)(F)F)nc4)c(F)c3)c2c1 [Compound P-2146, [3-Fluoro-5-(5-methyl-1H-pyrrolo[2,3-b]pyridin-3-ylmethyl)-pyridin-2-yl]-(6-trifluoromethyl-pyridin-3-ylmethyl)-amine] | < 5 | > 10 |  | > 10 |  | < 0.1 | <20 | < 0.1 | 5 to 10 | > 10 |  |  |  |  |
|  | Cc1cnc2[nH]cc(Cc3cnc(NCc4cccc(N5CCCC5)n4)nc3)c2c1 [Compound P-2082, [5-(5-Methyl-1H-pyrrolo[2,3-b]pyridin-3-ylmethyl)-pyrimidin-2-yl]-(6-pyrrolidin-1-yl-pyridin-2-ylmethyl)-amine] | < 5 | > 10 | < 5 | > 10 |  | < 0.1 | <20 | < 0.1 |  | < 5 |  |  |  |  |
|  | CCS(=O)(=O)Nc1ccccc1CNc1ccc(Cc2c[nH]c3ncc(C)cc23)c(F)n1 [Compound P-2198, Ethanesulfonic acid (2-{[6-fluoro-5-(5-methyl-1H-pyrrolo[2,3-b]pyridin-3-ylmethyl)-pyridin-2-ylamino]-methyl}-phenyl)-amide] | < 5 | > 10 |  | > 10 |  | > 0.1 | <20 | < 0.1 | 5 to 10 | < 5 |  |  |  |  |
|  | Cc1cnc2[nH]cc(Cc3cnc(NCc4cccc(N5CCOCC5)n4)nc3)c2c1 [Compound P-2081, [5-(5-Methyl-1H-pyrrolo[2,3-b]pyridin-3-ylmethyl)-pyrimidin-2-yl]-(6-morpholin-4-yl-pyridin-2-ylmethyl)-amine] | < 5 | > 10 | < 5 | > 10 |  | < 0.1 | <20 | > 0.1 |  | < 5 |  |  |  |  |
|  | COc1ncc(CNc2ncc(Cc3c[nH]c4ncc(C)cc34)cn2)cc1F [Compound P-2073, (5-Fluoro-6-methoxy-pyridin-3-ylmethyl)-[5-(5-methyl-1H-pyrrolo[2,3-b]pyridin-3-ylmethyl)-pyrimidin-2-yl]-amine] | > 10 | > 10 | < 5 | > 10 | 5 to 10 | > 0.1 | >20 | < 0.1 |  |  |  |  |  |  |
|  | COc1ccc(CNc2ncc(Cc3c[nH]c4ncc(C)cc34)cc2F)cn1 [Compound P-1562, [3-Fluoro-5-(5-methyl-1H-pyrrolo[2,3-b]pyridin-3-ylmethyl)-pyridin-2-yl]-(6-methoxy-pyridin-3-ylmethyl)-amine] | > 10 | > 10 | < 5 | > 10 | 5 to 10 | < 0.1 | <20 | < 0.1 |  |  |  |  |  |  |
|  | Cc1cnc2[nH]cc(Cc3ccc(NCc4ccc(C(F)(F)F)nc4)nc3)c2c1 [Compound P-2019, [5-(5-Methyl-1H-pyrrolo[2,3-b]pyridin-3-ylmethyl)-pyridin-2-yl]-(6-trifluoromethyl-pyridin-3-ylmethyl)-amine] |  | < 5 |  | > 10 |  | < 0.1 | <20 | < 0.1 |  | < 5 | 5 to 10 | < 5 | < 0.1 |  |
| < 0.1 | Fc1cc(Cc2c[nH]c3ncc(Cl)cc23)cnc1NCc1ccc(C(F)(F)F)nc1 [Compound P-2172, [5-(5-Chloro-1H-pyrrolo[2,3-b]pyridin-3-ylmethyl)-3-fluoro-pyridin-2-yl]-(6-trifluoromethyl-pyridin-3-ylmethyl)-amine] | < 5 | > 10 |  | > 10 |  | < 0.1 | <20 |  | 5 to 10 | > 10 |  |  |  |  |
|  | COc1cnc2[nH]cc(Cc3ccc(NCc4ccc(OC)nc4)nc3F)c2c1 [Compound P-2030, [6-Fluoro-5-(5-methoxy-1H-pyrrolo[2,3-b]pyridin-3-ylmethyl)-pyridin-2-yl]-(6-methoxy-pyridin-3-ylmethyl)-amine] | < 5 | > 10 | < 5 | > 10 | 5 to 10 | > 0.1 | >20 | < 0.1 |  |  |  |  | < 0.1 |  |
|  | COc1ccc(CNc2ncc(Cc3c[nH]c4ncc(C)cc34)cn2)cn1 [Compound P-2057, (6-Methoxy-pyridin-3-ylmethyl)-[5-(5-methyl-1H-pyrrolo[2,3-b]pyridin-3-ylmethyl)-pyrimidin-2-yl]-amine] |  | > 10 |  | > 10 |  | > 0.1 | >20 | < 0.1 | 5 to 10 | > 10 | 5 to 10 |  | < 0.1 |  |
|  | Cc1cnc2[nH]cc(Cc3ccc(NCc4cccnc4F)nc3F)c2c1 [Compound P-2103, [6-Fluoro-5-(5-methyl-1H-pyrrolo[2,3-b]pyridin-3-ylmethyl)-pyridin-2-yl]-(2-fluoro-pyridin-3-ylmethyl)-amine] | < 5 | > 10 | < 5 | > 10 | 5 to 10 | > 0.1 | <20 | < 0.1 |  |  |  |  |  |  |
|  | FC(F)(F)c1ccncc1CNc1ccc(Cc2c[nH]c3ncc(Cl)cc23)cn1 [Compound P-2063, [5-(5-Chloro-1H-pyrrolo[2,3-b]pyridin-3-ylmethyl)-pyridin-2-yl]-(4-trifluoromethyl-pyridin-3-ylmethyl)-amine] |  | > 10 | > 10 | > 10 | 5 to 10 | < 0.1 | >20 | < 0.1 |  |  | 5 to 10 |  |  |  |
|  | Cc1cnc2[nH]cc(Cc3ccc(NCc4ccc(Cl)nc4)nc3F)c2c1 [Compound P-2088, (6-Chloro-pyridin-3-ylmethyl)-[6-fluoro-5-(5-methyl-1H-pyrrolo[2,3-b]pyridin-3-ylmethyl)-pyridin-2-yl]-amine] | < 5 | > 10 | < 5 |  | 5 to 10 | > 0.1 | >20 | < 0.1 |  |  |  |  |  | > 10 |
|  | Cc1cnc2[nH]cc(Cc3ccc(NCc4ccnc(F)c4)nc3F)c2c1 [Compound P-2118, [6-Fluoro-5-(5-methyl-1H-pyrrolo[2,3-b]pyridin-3-ylmethyl)-pyridin-2-yl]-(2-fluoro-pyridin-4-ylmethyl)-amine] | < 5 | > 10 |  | > 10 | 5 to 10 | > 0.1 | >20 | < 0.1 | 5 to 10 |  |  |  |  |  |
|  | COc1cnc2[nH]cc(Cc3cnc(NCc4ccc(C(F)(F)F)nc4)c(F)c3)c2c1 [Compound P-2147, [3-Fluoro-5-(5-methoxy-1H-pyrrolo[2,3-b]pyridin-3-ylmethyl)-pyridin-2-yl]-(6-trifluoromethyl-pyridin-3-ylmethyl)-amine] | < 5 | > 10 | > 10 | > 10 | 5 to 10 | < 0.1 | <20 | < 0.1 |  |  |  |  |  |  |
|  | COc1ncc(CNc2ccc(Cc3c[nH]c4ncc(Cl)cc34)c(F)n2)cc1F [Compound P-2165, [5-(5-Chloro-1H-pyrrolo[2,3-b]pyridin-3-ylmethyl)-6-fluoro-pyridin-2-yl]-(5-fluoro-6-methoxy-pyridin-3-ylmethyl)-amine] | > 10 | > 10 | > 10 | > 10 |  | > 0.1 | >20 | < 0.1 |  | > 10 |  |  | < 0.1 |  |
